Test system: L. acidophilus NCFM
Assay: RNA-seq transcriptional analysis of L. acidophilus NCFM growing on plant glycosides
Format: cell-based, Lactobacillus acidophilus
[1] = LBA0329 Putative cell division protein, COG D
[2] = LBA0466 Hypothetical protein, COG C
[3] = LBA0500 MSM operon repressor, COG K
[4] = LBA0545 Hypothetical protein, COG L
[5] = LBA0547 Putative site-specific recombinase, COG L
[6] = LBA0573 Putative transcriptional regulator, COG K
[7] = LBA0607 Putative transcriptional regulator, COG K
[8] = LBA0672 Putative phosphate starvation inducible protein stress related, COG J
[9] = LBA0753 Multi-drug-type permease, COG GEPR
[10] = LBA0886 Sugar kinase-putative transcriptional regulator, COG KG
[11] = LBA0887 Hypothetical protein, COG C
[12] = LBA0897 Putative Cro-like protein, COG K
[13] = LBA0910 L-lactate dehydrogenase, COG C
[14] = LBA1021 Putative transcriptional regulator, COG K
[15] = LBA1220 Pyridine mercuric reductase, COG C
[16] = LBA1392 Mucus binding protein precursor Mub, COG J
[17] = LBA1411 Fumarate reductase flavoprotein subunit, COG CS
[18] = LBA1436 Glycerol uptake facilitator protein, COG G
[19] = LBA1457 Galactose-1-epimerase, COG G
[20] = LBA1458 Galactose-1-phosphate uridylyltransferase, COG G
[21] = LBA1462 Beta-galactosidase, COG G
[22] = LBA1463 Lactose permease, COG G
[23] = LBA1465 Transcription repressor of beta-galactosidasegene, COG K
[24] = LBA1467 Beta-galactosidase large subunit (lactase), COG G
[25] = LBA1468 Beta-galactosidase small subunit, COG G
[26] = LBA1481 D-ribose-binding protein precursor, COG G
[27] = LBA1482 Ribose ABC transporter, COG G
[28] = LBA1483 Ribose ABC transporter ATP binding protein, COG G
[29] = LBA1484 D-ribose pyranase, COG G
[30] = LBA1494 Lincomycin-resistance protein, COG GEPR
[31] = LBA1607 Phosphatidylserine decarboxylase precursor, COG I
[32] = LBA1632 NAD-dependent aldehyde dehydrogenase, COG C
[33] = LBA1653 Nicotinamide mononucleotide, COG H
[34] = LBA1684 Putative PTS system IIA component, COG G
[35] = LBA1689 Maltose-6′-phosphate Oucosidase, COG G
[36] = LBA1700 Transcriptional regulator-type, COG K
[37] = LBA1701 Melibiose operon regulatory protein, COG K
[38] = LBA1705 PTS system IIBC component, COG G
[39] = LBA1708 Transcriptional antiterminator, COG K
[40] = LBA1710 Thermostable pullulanase, COG G
[41] = LBA1812 Alpha-glucosidase II, COG G
[42] = LBA1870 Maltose phosphorylase, COG G
[43] = LBA1872 Oligo-1,6-glucosidase, COG G
[44] = LBA1955 Transcription regulator family protein, COG K
[45] = gene LBA0046 (Hypothetical protein)
[46] = gene LBA0149 (Putative nucleotide-binding protein)
[47] = gene LBA0263 (Hypothetical protein)

## O=c1ccc2cc(O[C@@H]3O[C@H](CO)[C@@H](O)[C@H](O)[C@H]3O)c(O)cc2o1 [Esculin]
LBA0016 Fructokinase, COG KG
  Log2 differential normalized TPM ratio compared to glucose: 1.9
  Log2 differential normalized TPM ratio compared to lactose: 0.7
  Transcripts per million (rpm): 347.8 rpm
[1]
  Log2 differential normalized TPM ratio compared to glucose: 2.4
  Log2 differential normalized TPM ratio compared to lactose: 1.9
  Transcripts per million (rpm): 88.3 rpm
[2]
  Log2 differential normalized TPM ratio compared to glucose: 2
  Log2 differential normalized TPM ratio compared to lactose: 0.5
  Transcripts per million (rpm): 408.4 rpm
[3]
  Log2 differential normalized TPM ratio compared to glucose: 0.5
  Log2 differential normalized TPM ratio compared to lactose: −1.1
  Transcripts per million (rpm): 78.4 rpm
[4]
  Log2 differential normalized TPM ratio compared to glucose: 1.9
  Log2 differential normalized TPM ratio compared to lactose: −0.1
  Transcripts per million (rpm): 286.5 rpm
[5]
  Log2 differential normalized TPM ratio compared to glucose: 2.1
  Log2 differential normalized TPM ratio compared to lactose: 0.4
  Transcripts per million (rpm): 50.6 rpm
[6]
  Log2 differential normalized TPM ratio compared to glucose: 2.6
  Log2 differential normalized TPM ratio compared to lactose: 2.5
  Transcripts per million (rpm): 592 rpm
[7]
  Log2 differential normalized TPM ratio compared to glucose: 1.8
  Log2 differential normalized TPM ratio compared to lactose: 1.4
  Transcripts per million (rpm): 179.3 rpm
[8]
  Log2 differential normalized TPM ratio compared to glucose: 1.8
  Log2 differential normalized TPM ratio compared to lactose: 0.9
  Transcripts per million (rpm): 5745.2 rpm
[9]
  Log2 differential normalized TPM ratio compared to glucose: 1.6
  Log2 differential normalized TPM ratio compared to lactose: 2.3
  Transcripts per million (rpm): 155 rpm
[10]
  Log2 differential normalized TPM ratio compared to glucose: 1.2
  Log2 differential normalized TPM ratio compared to lactose: 0.9
  Transcripts per million (rpm): 15.5 rpm
[11]
  Log2 differential normalized TPM ratio compared to glucose: 1.3
  Log2 differential normalized TPM ratio compared to lactose: 0.1
  Transcripts per million (rpm): 151.3 rpm
[12]
  Log2 differential normalized TPM ratio compared to glucose: −0.9
  Log2 differential normalized TPM ratio compared to lactose: 1.5
  Transcripts per million (rpm): 1.5 rpm
[13]
  Log2 differential normalized TPM ratio compared to glucose: 2.7
  Log2 differential normalized TPM ratio compared to lactose: 1.7
  Transcripts per million (rpm): 845.1 rpm
[14]
  Log2 differential normalized TPM ratio compared to glucose: 2.4
  Log2 differential normalized TPM ratio compared to lactose: 2
  Transcripts per million (rpm): 797.3 rpm
[15]
  Log2 differential normalized TPM ratio compared to glucose: 2
  Log2 differential normalized TPM ratio compared to lactose: 1.1
  Transcripts per million (rpm): 851.3 rpm
[16]
  Log2 differential normalized TPM ratio compared to glucose: 2.3
  Log2 differential normalized TPM ratio compared to lactose: 2.5
  Transcripts per million (rpm): 537 rpm
[17]
  Log2 differential normalized TPM ratio compared to glucose: 1.7
  Log2 differential normalized TPM ratio compared to lactose: 0.6
  Transcripts per million (rpm): 7.3 rpm
[18]
  Log2 differential normalized TPM ratio compared to glucose: 4.9
  Log2 differential normalized TPM ratio compared to lactose: 1.1
  Transcripts per million (rpm): 84.9 rpm
[19]
  Log2 differential normalized TPM ratio compared to glucose: 3.2
  Log2 differential normalized TPM ratio compared to lactose: −2.4
  Transcripts per million (rpm): 144.7 rpm
[20]
  Log2 differential normalized TPM ratio compared to glucose: 3.4
  Log2 differential normalized TPM ratio compared to lactose: −2.3
  Transcripts per million (rpm): 144 rpm
LBA1459 Galactokinase, COG G
  Log2 differential normalized TPM ratio compared to glucose: 2.3
  Log2 differential normalized TPM ratio compared to lactose: −2.4
  Transcripts per million (rpm): 123.5 rpm
[21]
  Log2 differential normalized TPM ratio compared to glucose: −0.5
  Log2 differential normalized TPM ratio compared to lactose: −6.5
  Transcripts per million (rpm): 13 rpm
[22]
  Log2 differential normalized TPM ratio compared to glucose: −0.3
  Log2 differential normalized TPM ratio compared to lactose: −5
  Transcripts per million (rpm): 47.8 rpm
LBA1464 Transposase, COG L
  Log2 differential normalized TPM ratio compared to glucose: −1
  Log2 differential normalized TPM ratio compared to lactose: −3.4
  Transcripts per million (rpm): 94.4 rpm
[23]
  Log2 differential normalized TPM ratio compared to glucose: −0.3
  Log2 differential normalized TPM ratio compared to lactose: −3.4
  Transcripts per million (rpm): 47.3 rpm
[24]
  Log2 differential normalized TPM ratio compared to glucose: 2.2
  Log2 differential normalized TPM ratio compared to lactose: −6.7
  Transcripts per million (rpm): 24.1 rpm
[25]
  Log2 differential normalized TPM ratio compared to glucose: 0.8
  Log2 differential normalized TPM ratio compared to lactose: −5.6
  Transcripts per million (rpm): 38.7 rpm
[26]
  Log2 differential normalized TPM ratio compared to glucose: 0.9
  Log2 differential normalized TPM ratio compared to lactose: 0.1
  Transcripts per million (rpm): 9.2 rpm
[27]
  Log2 differential normalized TPM ratio compared to glucose: 1
  Log2 differential normalized TPM ratio compared to lactose: 0
  Transcripts per million (rpm): 8.1 rpm
[28]
  Log2 differential normalized TPM ratio compared to glucose: 0.4
  Log2 differential normalized TPM ratio compared to lactose: −0.7
  Transcripts per million (rpm): 4.2 rpm
[29]
  Log2 differential normalized TPM ratio compared to glucose: 0.4
  Log2 differential normalized TPM ratio compared to lactose: −0.3
  Transcripts per million (rpm): 5.3 rpm
LBA1485 Ribokinase, COG G
  Log2 differential normalized TPM ratio compared to glucose: −0.3
  Log2 differential normalized TPM ratio compared to lactose: −1
  Transcripts per million (rpm): 2.7 rpm
[30]
  Log2 differential normalized TPM ratio compared to glucose: 3.6
  Log2 differential normalized TPM ratio compared to lactose: 3.6
  Transcripts per million (rpm): 69.4 rpm
[31]
  Log2 differential normalized TPM ratio compared to glucose: 1.5
  Log2 differential normalized TPM ratio compared to lactose: 0.5
  Transcripts per million (rpm): 59.5 rpm
[32]
  Log2 differential normalized TPM ratio compared to glucose: 3.3
  Log2 differential normalized TPM ratio compared to lactose: 1.5
  Transcripts per million (rpm): 730.5 rpm
[33]
  Log2 differential normalized TPM ratio compared to glucose: 2
  Log2 differential normalized TPM ratio compared to lactose: 1.4
  Transcripts per million (rpm): 996.7 rpm
[34]
  Log2 differential normalized TPM ratio compared to glucose: 2.9
  Log2 differential normalized TPM ratio compared to lactose: 1
  Transcripts per million (rpm): 98.9 rpm
[35]
  Log2 differential normalized TPM ratio compared to glucose: 1.8
  Log2 differential normalized TPM ratio compared to lactose: 0.3
  Transcripts per million (rpm): 12.7 rpm
[36]
  Log2 differential normalized TPM ratio compared to glucose: 1.5
  Log2 differential normalized TPM ratio compared to lactose: 1
  Transcripts per million (rpm): 61.9 rpm
[37]
  Log2 differential normalized TPM ratio compared to glucose: 4.9
  Log2 differential normalized TPM ratio compared to lactose: 4.1
  Transcripts per million (rpm): 1259.8 rpm
[38]
  Log2 differential normalized TPM ratio compared to glucose: 2.2
  Log2 differential normalized TPM ratio compared to lactose: 1.3
  Transcripts per million (rpm): 15.9 rpm
[39]
  Log2 differential normalized TPM ratio compared to glucose: 1.4
  Log2 differential normalized TPM ratio compared to lactose: 0
  Transcripts per million (rpm): 1.6 rpm
[40]
  Log2 differential normalized TPM ratio compared to glucose: 0.3
  Log2 differential normalized TPM ratio compared to lactose: −0.1
  Transcripts per million (rpm): 9.6 rpm
LBA1723 Transposase, COG L
  Log2 differential normalized TPM ratio compared to glucose: 0
  Log2 differential normalized TPM ratio compared to lactose: −0.2
  Transcripts per million (rpm): 55.8 rpm
[41]
  Log2 differential normalized TPM ratio compared to glucose: 2.8
  Log2 differential normalized TPM ratio compared to lactose: 0.8
  Transcripts per million (rpm): 120.6 rpm
[42]
  Log2 differential normalized TPM ratio compared to glucose: 0
  Log2 differential normalized TPM ratio compared to lactose: 1.2
  Transcripts per million (rpm): 109.2 rpm
LBA1871 Neopullulanase, COG G
  Log2 differential normalized TPM ratio compared to glucose: 2.1
  Log2 differential normalized TPM ratio compared to lactose: 1.4
  Transcripts per million (rpm): 12.2 rpm
[43]
  Log2 differential normalized TPM ratio compared to glucose: 1
  Log2 differential normalized TPM ratio compared to lactose: 0.6
  Transcripts per million (rpm): 6.3 rpm
LBA1873 Acetate kinase, COG C
  Log2 differential normalized TPM ratio compared to glucose: 0.8
  Log2 differential normalized TPM ratio compared to lactose: −0.5
  Transcripts per million (rpm): 6.4 rpm
LBA1878 Glycerol kinase, COG C
  Log2 differential normalized TPM ratio compared to glucose: 2.1
  Log2 differential normalized TPM ratio compared to lactose: 2
  Transcripts per million (rpm): 38 rpm
[44]
  Log2 differential normalized TPM ratio compared to glucose: −1.3
  Log2 differential normalized TPM ratio compared to lactose: −0.9
  Transcripts per million (rpm): 218.2 rpm
RNA-seq, compared to glucose
  number of up-regulated genes: 87 genes
RNA-seq, up-regulated genes not shared with the other PGs
  number of uniquely induced genes: 35
[45]
  Log2 differential normalized TPM ratio compared to glucose: 2.2
  Log2 differential normalized TPM ratio compared to lactose: 1.5
  Transcripts per million (rpm): 1439.6 rpm
[46]
  Log2 differential normalized TPM ratio compared to glucose: 1.4
  Log2 differential normalized TPM ratio compared to lactose: 0.6
  Transcripts per million (rpm): 1325.7 rpm
[47]
  Log2 differential normalized TPM ratio compared to glucose: 1.8
  Log2 differential normalized TPM ratio compared to lactose: 1.1
  Transcripts per million (rpm): 59.9 rpm

Reference: patent publication US20200222474A1, “COMPOSITIONS AND METHODS FOR INCREASING PHYTOCHEMICAL BIOAVAILABLITY AND BIOACTIVITY” (North Carolina State University, priority 2017, published 2020)
